Experiments:
rats [1] = assay: Rat Acute Capsaicin-Induced Flinching Behavior; format: in vivo; conditions: 100 μmol/kg oral, capsaicin 2.5 μg one hour after compound, five minute observation
Experimental: (iv) Rat Acute Capsaicin-Induced Flinching Behavior
Rats were placed in individual observation cages. Following an acclimation period of 30 minutes, selected compounds were administered orally at a dose of 100 μmol/kg orally in a vehicle (10% ethanol/20% Tween 80/70% polyethylene glycol-400) at a volume of 2 mL/kg. One hour after administration of the compound, 2.5 μg of capsaicin in a 10 μL solution of 10% ethanol/90% hydroxypropyl-β-cyclodextrin was injected subcutaneously into the dorsal aspect of the right hind paw. The observation cage was then suspended above mirrors in order to facilitate observation. […] The number of flinching behaviors of the injured paw was recorded during the five minute observation period (Gilchrist, H. D.; Allard, B. L.; Simone, D. A.; Enhanced withdrawal responses to heat and mechanical stimuli following intraplantar injection of capsaicin in rats. Pain, 1996, 67, 179-188). The percent reduction in the number of flinching behaviors produced from oral administration of the test compounds relative to control-treated animals (% effect) is reported in Table 2.

human TRPV1 [2] = biological target: T1, human TRPV1 (Homo sapiens, UniProt Q8NER1); assay: Capsaicin Activation Assay (FLIPR intracellular Ca2+, recombinant HEK293 cells); format: cell-based; conditions: recombinant HEK293 cells expressing hTRPV1; 50 nM capsaicin; read-out: human TRPV1 capsaicin IC50
T1 construct: expressed in transfected cells
T1 sequence (Q8NER1 whole entry): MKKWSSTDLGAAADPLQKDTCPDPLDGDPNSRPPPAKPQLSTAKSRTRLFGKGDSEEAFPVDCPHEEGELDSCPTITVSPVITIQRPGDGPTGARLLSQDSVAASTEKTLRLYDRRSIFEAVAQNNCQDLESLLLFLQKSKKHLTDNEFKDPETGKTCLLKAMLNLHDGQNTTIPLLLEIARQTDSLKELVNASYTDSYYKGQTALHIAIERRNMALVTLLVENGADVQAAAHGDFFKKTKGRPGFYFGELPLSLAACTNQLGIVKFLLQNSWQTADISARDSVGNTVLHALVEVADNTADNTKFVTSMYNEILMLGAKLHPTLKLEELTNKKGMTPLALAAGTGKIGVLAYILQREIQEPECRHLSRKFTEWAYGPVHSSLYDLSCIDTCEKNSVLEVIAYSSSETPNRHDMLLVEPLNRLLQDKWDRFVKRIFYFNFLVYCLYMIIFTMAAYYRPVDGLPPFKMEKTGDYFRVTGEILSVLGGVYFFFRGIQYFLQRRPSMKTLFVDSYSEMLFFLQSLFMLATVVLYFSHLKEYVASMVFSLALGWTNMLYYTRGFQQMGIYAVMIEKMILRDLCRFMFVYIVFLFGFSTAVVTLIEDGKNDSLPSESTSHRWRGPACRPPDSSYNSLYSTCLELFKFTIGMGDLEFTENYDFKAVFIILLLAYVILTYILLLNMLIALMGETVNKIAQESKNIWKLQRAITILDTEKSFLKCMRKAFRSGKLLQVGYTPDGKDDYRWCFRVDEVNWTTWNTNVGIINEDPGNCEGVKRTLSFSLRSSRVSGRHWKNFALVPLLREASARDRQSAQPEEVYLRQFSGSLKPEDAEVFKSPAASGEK

rats [3] = assay: Sodium Iodoacetate-Induced Knee Joint Osteoarthritic Pain Model (hind limb grip force); format: in vivo; conditions: rat, 1 hour after administration, 20 days after sodium iodoacetate, read-out: % effect (% return to normalcy of hind limb grip force); for inhibition in vivo at 100 µmol/kg: 100 μmol/kg po single dose
Experimental: (v) Sodium Iodoacetate-Induced Knee Joint Osteoarthritic Pain Model
Unilateral knee joint osteoarthritis was induced in the rats by a single intra-articular (i.a.) injection of sodium iodoacetate (3 mg in 0.05 mL sterile isotonic saline) into the right knee joint cavity under light isoflurane anesthesia using a 26G needle. […] Pain behavioral assessment of hind limb grip force was conducted by recording the maximum compressive force exerted on the hind limb strain gauge setup, in a commercially available grip force measurement system (Columbus Instruments, Columbus, Ohio). The grip force data was converted to a maximum hindlimb cumulative compressive force (CFmax) (gram force)/kg body weight for each animal. The analgesic effects of test compounds were determined 20 days following the i.a. injection of sodium iodoacetate. The vehicle control group for each compound being tested was assigned 0% whereas the age matched naïve group was assigned as being 100% (normal). The % effect for each dose group was then expressed as % return to normalcy compared to the naïve group. Test compounds were administered orally in 10% ethanol/20% Tween 80/70% polyethylene glycol-400 vehicle at a volume of 2 mL/kg. The assessment of the analgesic effects of test compounds was made 1 hour following oral administration. The assessment of the analgesic effects of test compounds can be made following a single dose or following repeated administration wherein the frequency of dosing is 1 to 2 times daily. The duration of such repeated daily dosing may last for any time greater than one day. A typical duration of repeated daily dosing is about 5 days to about 12 days.

human TRPV1 [4] = biological target: T1, human TRPV1; assay: Acid Activation Assay (pH 5.0, FLIPR intracellular Ca2+, recombinant HEK293 cells); format: cell-based; conditions: percentage of maximal pH 5.0-induced response remaining; HEK293 hTRPV1; max concentration 37.5 μM
Summary of the method: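 HEK293 cells stably expressing recombinant hTRPV1 were loaded with calcium dye for 90-120 min at 25° C and pre-treated with compound for 3 min before a pH 5.0 (DPBS/MES) challenge. Peak FLIPR fluorescence over baseline is given as percentage of the maximal pH 5.0-induced response.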

rats [5] = assay: Rat Tail Immersion (noxious thermosensation, 55° C. water bath); format: in vivo; conditions: morphine 6 mg/kg i.p. in saline, relative to vehicle control
Experimental: (iii) Rat Tail Immersion Protocol:
Compounds were tested for their effects on noxious thermosensation using the tail immersion assay. Testing was performed one hour following oral administration of 100 μmol/kg of the compound in 10% ethanol/20% Tween-80/70% PEG-400 (2 mL/kg). Mophine (6 mg/kg) was administered interperitoneally (i.p.) using saline (2 mL/kg) as the vehicle. For testing, a circulating water bath was heated to 55° C. Thirty to sixty minutes post dosing, the rats were handled for a few seconds to calm them down and then cupped with their back against the testers hand at a slight angle with head facing away from tester. With rat in one hand and a 0.01 second stopwatch in the other hand, the tail was quickly immersed 6-8 cm in water bath or to a distance leaving 2-3 cm of tail out of water. The timer was started simultaneously. […] This response latency (in seconds) was recorded. Process was repeated 3 times with 3-4 minutes between readings for a final average.
For a given compound, a percent increase in the average response latency (in seconds) for tail withdrawal relative to a vehicle control was determined % increase=[(tc−tv)/tv]×100% tc=response time (in seconds) with oral dosing of compounds tv=response time (in seconds) with oral dosing of vehicle […]
Table 1 reports the % increase in tail withdrawal latency measured for the compounds tested. […]

Structure (SMILES)	% effect (percent reduction in number of flinching behaviors relative to control-treated animals) (rats [1])	IC50 (human TRPV1 [2])	inhibition in vivo at 100 µmol/kg (rats [3])	human TRPV1 H+ (max % remain) (human TRPV1 [4])	inhibition in vivo at 30 µmol/kg (rats [3]; 30 μmol/kg po single dose)	% Increase in Tail Withdrawal Latency (rats [5])
O=C(Nc1cccc2c1C[C@H](O)C2)N[C@@H]1CC(CF)(CF)Oc2cc(Cl)ccc21 [Example 4, 1-[(4R)-7-chloro-2,2-bis(fluoromethyl)-3,4-dihydro-2H-chromen-4-yl]-3-[(2R)-2-hydroxy-2,3-dihydro-1H-inden-4-yl]urea]	54%	0.04 µM	67%	57%		
CC1(C)C[C@@H](NC(=O)Nc2cccc3c2C[C@H](O)C3)c2ccc(F)c(F)c2O1 [Example 9, 1-[(4R)-7,8-difluoro-2,2-dimethyl-3,4-dihydro-2H-chromen-4-yl]-3-[(2R)-2-hydroxy-2,3-dihydro-1H-inden-4-yl]urea]	76%	0.06 µM	67%	82%		
CC1(C)C[C@@H](NC(=O)Nc2cccc3c2C[C@H](O)C3)c2ccc(F)c(Cl)c2O1 [Example 12, 1-[(4R)-8-chloro-7-fluoro-2,2-dimethyl-3,4-dihydro-2H-chromen-4-yl]-3-[(2R)-2-hydroxy-2,3-dihydro-1H-inden-4-yl]urea]	53%	0.036 µM		77%		
O=C(Nc1cccc2c1C[C@H](O)C2)N[C@@H]1CCc2cc(C(F)(F)F)ccc21 [Example 40, 1-[(2R)-2-hydroxy-2,3-dihydro-1H-inden-4-yl]-3-[(1R)-5-(trifluoromethyl)-2,3-dihydro-1H-inden-1-yl]urea]		0.007 µM		30%	57%	
O=C(Nc1cccc2c1C[C@H](O)C2)N[C@@H]1CC(CF)(CF)Oc2cc(C(F)(F)F)ccc21 [Example 7, 1-[(4R)-2,2-bis(fluoromethyl)-7-(trifluoromethyl)-3,4-dihydro-2H-chromen-4-yl]-3-[(2R)-2-hydroxy-2,3-dihydro-1H-inden-4-yl]urea]	94%	0.047 µM	68%	48%		
CC1(C)C[C@@H](NC(=O)Nc2cccc3c2C[C@@H](O)C3)c2cccc(OC(F)(F)F)c2O1 [Example 88, 1-[(4R)-2,2-dimethyl-8-(trifluoromethoxy)-3,4-dihydro-2H-chromen-4-yl]-3-[(2S)-2-hydroxy-2,3-dihydro-1H-inden-4-yl]urea]	69%	0.016 µM		23%		
CN1CC[C@]23c4c5ccc(O)c4O[C@H]2[C@@H](O)C=C[C@H]3[C@H]1C5 [Morphine]						+++ (greater than or equal to 25% increase)
CC1(C)C[C@@H](NC(=O)Nc2cccc3c2C[C@@H](O)C3)c2ccc(F)c(Cl)c2O1 [Example 36, 1-[(4R)-8-chloro-7-fluoro-2,2-dimethyl-3,4-dihydro-2H-chromen-4-yl]-3-[(2S)-2-hydroxy-2,3-dihydro-1H-inden-4-yl]urea]	71%	0.026 µM	46%	32%		
